Data as given in ChEMBL document CHEMBL1201861, “Genomics of Drug Sensitity in Cancer screening data, Wellcome Trust Sanger Institute”.

Experiments:
SJRH30 = assay: cells; type: functional, cell-based, Homo sapiens; conditions: Homo sapiens, SJRH30;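 further: growth inhibition of human SJRH30 cells, read out with a cell viability assay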
Description: SANGER: Inhibition of human SJRH30 cell growth in a cell viability assay.

LN-405 = assay: cells; type: functional, cell-based, Homo sapiens; conditions: Homo sapiens, LN-405
Description: SANGER: Inhibition of human LN-405 cell growth in a cell viability assay.

KMS-12-PE = assay: cells; type: functional, cell-based, Homo sapiens; conditions: Homo sapiens, KMS-12-PE;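 further: growth inhibition of human KMS-12-PE cells, measured with a cell viability assay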
Description: SANGER: Inhibition of human KMS-12-PE cell growth in a cell viability assay.

RL = assay: cells; type: functional, cell-based, Homo sapiens; conditions: Homo sapiens, RL
Description: SANGER: Inhibition of human RL cell growth in a cell viability assay.

LCLC-97TM1 = assay: cells; type: functional, cell-based, Homo sapiens; conditions: Homo sapiens, LCLC-97TM1;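 further: cell viability assay measuring growth inhibition of human LCLC-97TM1 cells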
Description: SANGER: Inhibition of human LCLC-97TM1 cell growth in a cell viability assay.

SK-OV-3 = assay: cells; type: functional, cell-based, Homo sapiens; conditions: Homo sapiens, SK-OV-3;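 further: growth inhibition of SK-OV-3 human cells, read out with a cell viability assay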
Description: SANGER: Inhibition of human SK-OV-3 cell growth in a cell viability assay.

BEN = assay: cells; type: functional, cell-based, Homo sapiens; conditions: Homo sapiens, BEN;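 further: growth inhibition of the BEN cell line, read out with a cell viability assay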
Description: SANGER: Inhibition of human BEN cell growth in a cell viability assay.

BC1 cell line = assay: SANGER: Inhibition of human BC-1 cell growth in a cell viability assay.; type: functional, cell-based; conditions: Homo sapiens, BC1
Daoy = assay: cells; type: functional, cell-based, Homo sapiens; conditions: Homo sapiens, Daoy;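 further: daoy cell growth inhibition, read out as cell viability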
Description: SANGER: Inhibition of human Daoy cell growth in a cell viability assay.

HT-1376 = assay: cells; type: functional, cell-based, Homo sapiens; conditions: Homo sapiens, HT-1376
Description: SANGER: Inhibition of human HT-1376 cell growth in a cell viability assay.

RD = assay: cells; type: functional, cell-based, Homo sapiens; conditions: Homo sapiens, RD
Description: SANGER: Inhibition of human RD cell growth in a cell viability assay.

A-431 = assay: cells; type: functional, cell-based, Homo sapiens; conditions: Homo sapiens, A-431;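 further: growth inhibition of A-431 cells, determined with a cell viability read-out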
Description: SANGER: Inhibition of human A431 cell growth in a cell viability assay.

SKG-IIIa = assay: cells; type: functional, cell-based, Homo sapiens; conditions: Homo sapiens, SKG-IIIa;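 further: cell growth inhibition, read out with a cell viability assay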
Description: SANGER: Inhibition of human SKG-IIIa cell growth in a cell viability assay.

SW1990 = assay: cells; type: functional, cell-based, Homo sapiens; conditions: Homo sapiens, SW1990
Description: SANGER: Inhibition of human SW1990 cell growth in a cell viability assay.

A 172 = assay: cells; type: functional, cell-based, Homo sapiens; conditions: Homo sapiens, A 172;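 further: growth inhibition of A172 cells, measured with a cell viability readout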
Description: SANGER: Inhibition of human A172 cell growth in a cell viability assay.

SK-MES-1 = assay: cells; type: functional, cell-based, Homo sapiens; conditions: Homo sapiens, SK-MES-1;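 further: growth inhibition of human SK-MES-1 cells, read out with a cell viability assay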
Description: SANGER: Inhibition of human SK-MES-1 cell growth in a cell viability assay.

T47D = assay: cells; type: functional, cell-based, Homo sapiens; conditions: Homo sapiens, T47D;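 further: growth inhibition of human T47D cells, measured with a cell viability assay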
Description: SANGER: Inhibition of human T47D cell growth in a cell viability assay.

PC-3 = assay: cells; type: functional, cell-based, Homo sapiens; conditions: Homo sapiens, PC-3;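 further: cell viability assay measuring growth inhibition of PC-3 cells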
Description: SANGER: Inhibition of human PC-3 cell growth in a cell viability assay.

HCC1569 = assay: cells; type: functional, cell-based, Homo sapiens; conditions: Homo sapiens, HCC1569;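 further: growth inhibition of human HCC1569 cells, read out with a cell viability assay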
Description: SANGER: Inhibition of human HCC1569 cell growth in a cell viability assay.

HCC1937 = assay: cells; type: functional, cell-based, Homo sapiens; conditions: Homo sapiens, HCC1937;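 further: growth inhibition measured with a cell viability read-out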
Description: SANGER: Inhibition of human HCC1937 cell growth in a cell viability assay.

UO-31 = assay: cells; type: functional, cell-based, Homo sapiens; conditions: Homo sapiens, UO-31
Description: SANGER: Inhibition of human U031 cell growth in a cell viability assay.

OVCAR-5 = assay: cells; type: functional, cell-based, Homo sapiens; conditions: Homo sapiens, OVCAR-5;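 further: growth inhibition of human OVCAR-5 cells, read out with a cell viability assay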
Description: SANGER: Inhibition of human OVCAR-5 cell growth in a cell viability assay.

HT-29 = assay: cells; type: functional, cell-based, Homo sapiens; conditions: Homo sapiens, HT-29;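 further: growth inhibition of human HT-29 cells, read out by a cell viability assay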
Description: SANGER: Inhibition of human HT-29 cell growth in a cell viability assay.

NCI-H522 = assay: cells; type: functional, cell-based, Homo sapiens; conditions: Homo sapiens, NCI-H522;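 further: cell viability assay measuring growth inhibition of human NCI-H522 cells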
Description: SANGER: Inhibition of human NCI-H522 cell growth in a cell viability assay.

SW13 = assay: cells; type: functional, cell-based, Homo sapiens; conditions: Homo sapiens, SW13;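 further: IC50 is inhibition of SW13 cell growth, read out with a cell viability assay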
Description: SANGER: Inhibition of human SW13 cell growth in a cell viability assay.

KP-4 = assay: cells; type: functional, cell-based, Homo sapiens; conditions: Homo sapiens, KP-4;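 further: human KP-4 cells, with growth inhibition read out through a cell viability assay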
Description: SANGER: Inhibition of human KP-4 cell growth in a cell viability assay.

NCI-H187 = assay: cells; type: functional, cell-based, Homo sapiens; conditions: Homo sapiens, NCI-H187;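 further: growth inhibition of NCI-H187 cells, read out as cell viability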
Description: SANGER: Inhibition of human NCI-H187 cell growth in a cell viability assay.

NCI-H2196 = assay: cells; type: functional, cell-based, Homo sapiens; conditions: Homo sapiens, NCI-H2196;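 further: cell viability assay used as the readout of growth inhibition in NCI-H2196 cells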
Description: SANGER: Inhibition of human NCI-H2196 cell growth in a cell viability assay.

S-117 = assay: cells; type: functional, cell-based, Homo sapiens; conditions: Homo sapiens, S-117
Description: SANGER: Inhibition of human S-117 cell growth in a cell viability assay.

SW1783 = assay: cells; type: functional, cell-based, Homo sapiens; conditions: Homo sapiens, SW1783
Description: SANGER: Inhibition of human SW1783 cell growth in a cell viability assay.

NCI-H889 = assay: cells; type: functional, cell-based, Homo sapiens; conditions: Homo sapiens, NCI-H889;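 further: cell growth inhibition of the cell line, read out with a viability assay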
Description: SANGER: Inhibition of human NCI-H889 cell growth in a cell viability assay.

BC-3 = assay: cells; type: functional, cell-based, Homo sapiens; conditions: Homo sapiens, BC-3;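 further: cell viability assay measuring growth inhibition of human BC-3 cells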
Description: SANGER: Inhibition of human BC-3 cell growth in a cell viability assay.

HCC1599 = assay: cells; type: functional, cell-based, Homo sapiens; conditions: Homo sapiens, HCC1599;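 further: growth inhibition of HCC1599 cells, read out in a cell viability assay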
Description: SANGER: Inhibition of human HCC1599 cell growth in a cell viability assay.

SN12C = assay: cells; type: functional, cell-based, Homo sapiens; conditions: Homo sapiens, SN12C;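 further: growth inhibition of human SN12C cells, measured by a cell viability assay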
Description: SANGER: Inhibition of human SN12C cell growth in a cell viability assay.

NCI-H2030 = assay: cells; type: functional, cell-based, Homo sapiens; conditions: Homo sapiens, NCI-H2030;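 further: growth inhibition of human NCI-H2030 cells, read out by a cell viability assay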
Description: SANGER: Inhibition of human NCI-H2030 cell growth in a cell viability assay.

SW780 = assay: cells; type: functional, cell-based, Homo sapiens; conditions: Homo sapiens, SW780;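 further: growth inhibition of the cells, read out with a cell viability assay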
Description: SANGER: Inhibition of human SW780 cell growth in a cell viability assay.

NCI-H345 = assay: cells; type: functional, cell-based, Homo sapiens; conditions: Homo sapiens, NCI-H345;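 further: growth inhibition of NCI-H345 cells measured with a cell viability assay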
Description: SANGER: Inhibition of human NCI-H345 cell growth in a cell viability assay.

SK-MM-2 = assay: cells; type: functional, cell-based, Homo sapiens; conditions: Homo sapiens, SK-MM-2;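 further: growth inhibition of human SK-MM-2 cells, read out with a cell viability assay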
Description: SANGER: Inhibition of human SK-MM-2 cell growth in a cell viability assay.

HOP-92 = assay: cells; type: functional, cell-based, Homo sapiens; conditions: Homo sapiens, HOP-92;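 further: cell viability readout, with IC50 reflecting inhibition of HOP-92 cell growth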
Description: SANGER: Inhibition of human HOP-92 cell growth in a cell viability assay.

DOK = assay: cells; type: functional, cell-based, Homo sapiens; conditions: Homo sapiens, DOK;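 further: cell viability assay read-out, values reflect inhibition of cell growth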
Description: SANGER: Inhibition of human DOK cell growth in a cell viability assay.

HCC38 = assay: cells; type: functional, cell-based, Homo sapiens; conditions: Homo sapiens, HCC38;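 further: cell viability assay on the human HCC38 cell line, with IC50 marking the concentration that inhibits cell growth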
Description: SANGER: Inhibition of human HCC38 cell growth in a cell viability assay.

KYSE-510 = assay: cells; type: functional, cell-based, Homo sapiens; conditions: Homo sapiens, KYSE-510;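 further: cell viability readout used to measure how strongly growth of the cell line is suppressed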
Description: SANGER: Inhibition of human KYSE-510 cell growth in a cell viability assay.

C-33-A = assay: cells; type: functional, cell-based, Homo sapiens; conditions: Homo sapiens, C-33-A;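 further: cell viability assay measuring growth inhibition of C-33-A cells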
Description: SANGER: Inhibition of human C-33-A cell growth in a cell viability assay.

EB2 = assay: cells; type: functional, cell-based, Homo sapiens; conditions: Homo sapiens, EB2;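 further: growth inhibition of EB2 cells, read out with a cell viability assay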
Description: SANGER: Inhibition of human EB2 cell growth in a cell viability assay.

23132-87 = assay: cells; type: functional, cell-based, Homo sapiens; conditions: Homo sapiens
Description: SANGER: Inhibition of human 23132-87 cell growth in a cell viability assay.

KP-N-YN = assay: cells; type: functional, cell-based, Homo sapiens; conditions: Homo sapiens, KP-N-YN;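 further: growth inhibition of KP-N-YN cells, read out with a cell viability assay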
Description: SANGER: Inhibition of human KP-N-YN cell growth in a cell viability assay.

HN = assay: cells; type: functional, cell-based, Homo sapiens; conditions: Homo sapiens, HN
Description: SANGER: Inhibition of human HN cell growth in a cell viability assay.

SMILES: Cc1cc([N+](=O)[O-])ccc1NS(=O)(=O)c1cc(Cl)ccc1Cl
- IC50 (SJRH30): 2.07 µM
- IC50 (LN-405): 11.9 µM
- IC50 (KMS-12-PE): > 32 µM
- IC50 (RL): > 32 µM
- IC50 (LCLC-97TM1): 3.18 µM
- IC50 (SK-OV-3): 9.13 µM
- IC50 (BEN): 2.28 µM
- IC50 (BC1 cell line): 3.6 µM
- IC50 (Daoy): 4.14 µM
- IC50 (HT-1376): 3.81 µM
- IC50 (RD): 7.33 µM
- IC50 (A-431): 2.09 µM
- IC50 (SKG-IIIa): > 32 µM
- IC50 (SW1990): 5.38 µM
- IC50 (A 172): 5.91 µM
- IC50 (SK-MES-1): 2.07 µM
- IC50 (T47D): 26.9 µM
- IC50 (PC-3): 8.12 µM
- IC50 (HCC1569): 3.48 µM
- IC50 (HCC1937): 6.27 µM
- IC50 (UO-31): 8.66 µM
- IC50 (OVCAR-5): 23.6 µM
- IC50 (HT-29): 5.53 µM
- IC50 (NCI-H522): 1.4 µM
- IC50 (SW13): 1.99 µM
- IC50 (KP-4): 1.66 µM
- IC50 (NCI-H187): 12.3 µM
- IC50 (NCI-H2196): > 32 µM
- IC50 (S-117): < 0.125 µM
- IC50 (SW1783): 7.15 µM
- IC50 (NCI-H889): > 32 µM
- IC50 (BC-3): 8.38 µM
- IC50 (HCC1599): 16.7 µM
- IC50 (SN12C): 3.64 µM
- IC50 (NCI-H2030): 4.43 µM
- IC50 (SW780): 6.1 µM
- IC50 (NCI-H345): 17.8 µM
- IC50 (SK-MM-2): > 32 µM
- IC50 (HOP-92): 2.81 µM
- IC50 (DOK): > 32 µM
- IC50 (HCC38): 7.96 µM
- IC50 (KYSE-510): 4.84 µM
- IC50 (C-33-A): 2 µM
- IC50 (EB2): > 32 µM
- IC50 (23132-87): 3.5 µM
- IC50 (KP-N-YN): 10.2 µM
- IC50 (HN): > 32 µM

SMILES: Oc1ccc2ccccc2c1SSc1c(O)ccc2ccccc12
- IC50 (SJRH30): > 32 µM
- IC50 (LN-405): > 32 µM
- IC50 (KMS-12-PE): > 32 µM
- IC50 (RL): > 32 µM
- IC50 (LCLC-97TM1): > 32 µM
- IC50 (SK-OV-3): > 32 µM
- IC50 (BEN): > 32 µM
- IC50 (BC1 cell line): > 32 µM
- IC50 (Daoy): 3.25 µM
- IC50 (HT-1376): > 32 µM
- IC50 (RD): > 32 µM
- IC50 (A-431): > 32 µM
- IC50 (SKG-IIIa): > 32 µM
- IC50 (SW1990): > 32 µM
- IC50 (A 172): > 32 µM
- IC50 (SK-MES-1): 11.6 µM
- IC50 (T47D): > 32 µM
- IC50 (PC-3): > 32 µM
- IC50 (HCC1569): > 32 µM
- IC50 (HCC1937): > 32 µM
- IC50 (UO-31): > 32 µM
- IC50 (OVCAR-5): > 32 µM
- IC50 (HT-29): > 32 µM
- IC50 (NCI-H522): > 32 µM
- IC50 (SW13): > 32 µM
- IC50 (KP-4): > 32 µM
- IC50 (NCI-H187): > 32 µM
- IC50 (NCI-H2196): > 32 µM
- IC50 (S-117): 31.4 µM
- IC50 (SW1783): > 32 µM
- IC50 (NCI-H889): > 32 µM
- IC50 (BC-3): > 32 µM
- IC50 (HCC1599): > 32 µM
- IC50 (SN12C): > 32 µM
- IC50 (NCI-H2030): > 32 µM
- IC50 (SW780): > 32 µM
- IC50 (NCI-H345): > 32 µM
- IC50 (SK-MM-2): > 32 µM
- IC50 (HOP-92): > 32 µM
- IC50 (DOK): > 32 µM
- IC50 (HCC38): > 32 µM
- IC50 (KYSE-510): > 32 µM
- IC50 (C-33-A): > 32 µM
- IC50 (EB2): 4.49 µM
- IC50 (23132-87): > 32 µM
- IC50 (KP-N-YN): > 32 µM
- IC50 (HN): > 32 µM
